target: T1, AGO2-MID (Homo sapiens, UniProt Q9UKV8); assay: isothermal titration calorimetry; assay type: binding; details: read-out: Ka (× 10^3 M^-1) (converted)
T1 construct: MID domain, residues 432-578; expressed in E. coli BL21(DE3)pLysS as His6-SUMO-TEV fusion (pCold I), His6-SUMO cleaved with proTEV
Excerpt: isothermal titration calorimetry on AGO2-MID

T1 sequence (Q9UKV8 432-578): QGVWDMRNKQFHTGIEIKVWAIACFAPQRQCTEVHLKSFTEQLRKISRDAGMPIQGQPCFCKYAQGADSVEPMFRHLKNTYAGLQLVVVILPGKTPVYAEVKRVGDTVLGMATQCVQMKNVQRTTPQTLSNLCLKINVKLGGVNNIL

SMILES	Kd [µM]
Nc1ncnc2c1ncn2[C@@H]1O[C@H](COP(=O)(O)O)[C@@H](O)[C@H]1O [AMP]	169
Nc1ncnc2c1ncn2[C@@H]1O[C@H](COP(=O)(O)O[C@H]2[C@@H](O)[C@H](n3cnc4c(N)ncnc43)O[C@@H]2COP(=O)(O)O)[C@@H](O)[C@H]1O [p-rArA]	4.35
Nc1ncnc2c1ncn2CC(=O)N[C@@H](COP(=O)(O)O)COP(=O)(O)OC[C@H]1O[C@@H](n2cnc3c(N)ncnc32)[C@H](O)[C@@H]1O [p-sArA]	139
Nc1ncnc2c1ncn2CC(=O)N[C@H](CO)COP(=O)(O)OC[C@H](COP(=O)(O)O)NC(=O)Cn1cnc2c(N)ncnc21 [p-sAsA]	169
